From the NIST ThermoML archive (doi:10.1016/j.jct.2016.04.024)
± gives the expanded uncertainty stated by the source.

How the values were obtained:
[1] = 100 kPa, Liquid; for speed of sound: Frequency=3 MHz, Sing-around technique in a fixed-path interferometer; for mass density: Vibrating tube method
[2] = xn = mol fraction of the nth substance listed; settings: 100 kPa, Liquid; for speed of sound: Frequency=3 MHz, Sing-around technique in a fixed-path interferometer; for mass density: Vibrating tube method

## Nc1ccccc1 [aniline]
[1]; 293.15 K
  speed of sound: 1656.8 ± 1.3 m/s
  mass density: 1021.69 ± 1 kg/m3
[1]; 303.15 K
  speed of sound: 1618.3 ± 1.3 m/s
  mass density: 1013.04 ± 1 kg/m3
[1]; 313.15 K
  speed of sound: 1580 ± 1.3 m/s
  mass density: 1004.36 ± 1 kg/m3
[1]; 323.15 K
  speed of sound: 1541.9 ± 1.3 m/s
  mass density: 995.66 ± 1 kg/m3

## Nc1ccccc1 [aniline] + CCCCn1cc[n+](C)c1.F[B-](F)(F)F
[2]; 293.15 K, x2 = 0
  speed of sound: 1656.8 ± 1.3 m/s
  mass density: 1021.69 ± 1 kg/m3
[2]; 293.15 K, x2 = 0.1001
  speed of sound: 1661 ± 1.4 m/s
  mass density: 1058.27 ± 1.5 kg/m3
[2]; 293.15 K, x2 = 0.4991
  speed of sound: 1624.8 ± 1.4 m/s
  mass density: 1150.32 ± 1.5 kg/m3
[2]; 293.15 K, x2 = 0.6032
  speed of sound: 1610.6 ± 1.5 m/s
  mass density: 1163.88 ± 1.6 kg/m3
[2]; 293.15 K, x2 = 0.7021
  speed of sound: 1599.8 ± 1.5 m/s
  mass density: 1175.38 ± 1.6 kg/m3
[2]; 293.15 K, x2 = 0.7907
  speed of sound: 1592.7 ± 1.5 m/s
  mass density: 1184.36 ± 1.6 kg/m3
[2]; 293.15 K, x2 = 0.9026
  speed of sound: 1584.1 ± 1.6 m/s
  mass density: 1194.78 ± 1.6 kg/m3
[2]; 303.15 K, x2 = 0
  speed of sound: 1618.3 ± 1.3 m/s
  mass density: 1013.04 ± 1 kg/m3
[2]; 303.15 K, x2 = 0.1001
  speed of sound: 1626.5 ± 1.4 m/s
  mass density: 1050.3 ± 1.4 kg/m3
[2]; 303.15 K, x2 = 0.4991
  speed of sound: 1598.3 ± 1.4 m/s
  mass density: 1143.1 ± 1.5 kg/m3
[2]; 303.15 K, x2 = 0.6032
  speed of sound: 1584.8 ± 1.5 m/s
  mass density: 1156.61 ± 1.6 kg/m3
[2]; 303.15 K, x2 = 0.7021
  speed of sound: 1574.8 ± 1.5 m/s
  mass density: 1168.21 ± 1.6 kg/m3
[2]; 303.15 K, x2 = 0.7907
  speed of sound: 1568.5 ± 1.5 m/s
  mass density: 1177.25 ± 1.6 kg/m3
[2]; 303.15 K, x2 = 0.9026
  speed of sound: 1559.7 ± 1.6 m/s
  mass density: 1187.71 ± 1.6 kg/m3
[2]; 313.15 K, x2 = 0
  speed of sound: 1580 ± 1.3 m/s
  mass density: 1004.36 ± 1 kg/m3
[2]; 313.15 K, x2 = 0.1001
  speed of sound: 1592 ± 1.4 m/s
  mass density: 1042.33 ± 1.4 kg/m3
[2]; 313.15 K, x2 = 0.4991
  speed of sound: 1571.9 ± 1.4 m/s
  mass density: 1135.81 ± 1.5 kg/m3
[2]; 313.15 K, x2 = 0.6032
  speed of sound: 1559.4 ± 1.5 m/s
  mass density: 1149.6 ± 1.5 kg/m3
[2]; 313.15 K, x2 = 0.7021
  speed of sound: 1549.2 ± 1.5 m/s
  mass density: 1161.22 ± 1.6 kg/m3
[2]; 313.15 K, x2 = 0.7907
  speed of sound: 1540.8 ± 1.5 m/s
  mass density: 1170.51 ± 1.6 kg/m3
[2]; 313.15 K, x2 = 0.9026
  speed of sound: 1535.8 ± 1.6 m/s
  mass density: 1180.84 ± 1.6 kg/m3
[2]; 323.15 K, x2 = 0
  speed of sound: 1541.9 ± 1.3 m/s
  mass density: 995.66 ± 1 kg/m3
[2]; 323.15 K, x2 = 0.1001
  speed of sound: 1557.7 ± 1.3 m/s
  mass density: 1034.33 ± 1.4 kg/m3
[2]; 323.15 K, x2 = 0.2028
  speed of sound: 1569.8 ± 1.4 m/s
  mass density: 1068.14 ± 1.5 kg/m3
[2]; 323.15 K, x2 = 0.4991
  speed of sound: 1546.1 ± 1.4 m/s
  mass density: 1128.64 ± 1.5 kg/m3
[2]; 323.15 K, x2 = 0.6032
  speed of sound: 1534.7 ± 1.5 m/s
  mass density: 1142.78 ± 1.5 kg/m3
[2]; 323.15 K, x2 = 0.7021
  speed of sound: 1525.1 ± 1.5 m/s
  mass density: 1154.4 ± 1.6 kg/m3
[2]; 323.15 K, x2 = 0.7907
  speed of sound: 1518.5 ± 1.5 m/s
  mass density: 1163.73 ± 1.6 kg/m3
[2]; 323.15 K, x2 = 0.9026
  speed of sound: 1512.4 ± 1.5 m/s
  mass density: 1173.92 ± 1.6 kg/m3

## CCCCn1cc[n+](C)c1.F[B-](F)(F)F [1-butyl-3-methylimidazolium tetrafluoroborate] + Nc1ccccc1
[2]; 293.15 K, x1 = 1
  speed of sound: 1577.5 ± 1.6 m/s
  mass density: 1203.63 ± 1.1 kg/m3
[2]; 303.15 K, x1 = 1
  speed of sound: 1553.2 ± 1.6 m/s
  mass density: 1195.18 ± 1.1 kg/m3
[2]; 313.15 K, x1 = 1
  speed of sound: 1529.7 ± 1.6 m/s
  mass density: 1188.04 ± 1.1 kg/m3
[2]; 323.15 K, x1 = 1
  speed of sound: 1506.8 ± 1.6 m/s
  mass density: 1180.98 ± 1.1 kg/m3

## CCCCn1cc[n+](C)c1.F[B-](F)(F)F [1-butyl-3-methylimidazolium tetrafluoroborate]
[1]; 293.15 K
  speed of sound: 1577.5 ± 1.6 m/s
  mass density: 1203.63 ± 1.1 kg/m3
